# Columns and labels:
# [1] = [^125I]-labeled compounds, normal mice, brain; cited from earlier work
# [2] = test system: intracerebral amyloid (aggregated Aβ1-42); experiment: Confirmation of imaging of amyloid in brain (autoradiogram of brain slice, amyloid injected into amygdaloid nucleus); format: in vivo, male Wistar rat; conditions: rat, tail vein injection, brain removed 60 minutes after injection
# Method: (§1) The following experiment was carried out in order to examine whether amyloid in brain can be imaged by the compound of the present invention.
# (§2) (1) Aβ1-42 (Wako) was dissolved in phosphate buffer (pH 7.4) and shaken at 37° C. for 72 hours, to obtain a 1 mg/mL suspension of aggregated Aβ (hereinafter referred to as amyloid suspension in this Example).
# (§3) (2) Under thiopental anesthesia, […] of the amyloid suspension was injected into an amygdaloid nucleus on one side of a male Wistar rat (7-week old). As a control, 2.5 μL of a phosphate buffered physiological saline solution (pH 7.4) was injected into an amygdaloid nucleus on the other side of the rat. The rats were examined 1 day after the injection of the amyloid suspension and the phosphate buffered physiological saline solution (pH 7.4).
# (§4) This sample solution was injected under thiopental anesthesia into the rat through the tail vein (dosage: 0.5 mL, dosed radioactivity: 16 MBq equivalent).
# (§5) (4) Brain was removed 60 minutes after the injection to prepare a brain slice of 10 μm in thickness with a microtome (type: CM3050S, manufactured by LEICA). The brain slice was exposed to an imaging plate for 20 hours, and then image analysis was carried out by use of a Bio-imaging Analyzer (type: BAS-2500; manufactured by FUJIFILM Corporation).
# [3] = target: T1, intracerebral amyloid (aggregated Aβ1-42) (Homo sapiens, UniProt P05067); experiment: as above; format: in vivo, male Wistar rat; conditions: rat, tail vein injection, brain removed 60 minutes after injection
# T1 construct: Aβ1-42 (Wako) was dissolved in phosphate buffer (pH 7.4); purchased Wako
# T1 sequence (P05067 672-713): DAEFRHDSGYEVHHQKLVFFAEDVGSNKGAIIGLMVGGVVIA
# Method: as §1, §2, §3, §4, §5
# [4] = Transferability into brain and clearance (radioactive accumulation in brain after intravenous injection); conditions: rats
# Method: Using [^123I]-2-(4′-iodophenyl)-6-methoxyimidazo[1,2-a]pyridine and [^123I]-2-(4′-fluorophenyl)-6-iodoimidazo[1,2-a]pyridine, a time course change of radioactive accumulation in brain of male Wistar rats (7-week old) was measured.
# The rats were sacrificed by bleeding from abdominal artery, and brains were removed and subjected to measurement of mass of brains (hereinafter referred to as A in this Example) and further subjected to measurement of radioactivity with a single channel analyzer (detector type: SP-20 manufactured by OHYO KOKEN KOGYO Co., Ltd.) 2, 5, 30 and 60 minutes after the injection. Also, radioactivity (hereinafter referred to as B in this Example) of the rest of the whole body was measured in the same manner as above.
# The same procedures as above was conducted and subjected to the same procedures as above to calculate radioactive accumulation per unit weight of a brain (% ID/g) at the respective time points were calculated.
# Three animals were used for Example 15, Example 16 and Comparative Example 2 at the respective time points.
# [5] = Partition coefficient based on the octanol extraction method (logPoctanol); conditions: octanol / 10 mmol/L phosphate buffer (pH 7.4)
# Method: 10 μL each of the prepared sample solution was respectively added to 2 mL of octanol, further, 2 mL of 10 mmol/L phosphate buffer (pH 7.4) was added, and stirred for 30 seconds. After the mixture was centrifuged with a low-speed centrifuge (2000 rpm×60 min.), the octanol layer and the water layer were sampled each in an amount of 1 mL, and subjected to measurement of radioactivity count with an autowell gamma system (Type: ARC-301B, manufactured by Aloka). Using the obtained radioactivity count, logPoctanol was calculated in accordance with the equation (2).
compound,measurement,setting,value
"CN(C)c1ccc(-c2nc3ccc(I)cc3o2)cc1 [IBOX, 6-iodo-2-[4′-(N,N-dimethylamino)phenyl]benzoxazole]",clearance from normal tissues,[1],insufficient in clearance from normal tissues
"Fc1ccc(-c2cn3cc([123I])ccc3n2)cc1 [[^123I]-2-(4′-fluorophenyl)-6-iodoimidazo[1,2-a]pyridine]",accumulation of radioactivity in amygdaloid nucleus on the side to which the physiological saline solution was injected,[2],no significant accumulation of radioactivity
same,accumulation of radioactivity in amygdaloid nucleus on the side to which the amyloid suspension was injected,[3],marked accumulation of radioactivity
same,Radioactive accumulation per unit weight in brain,[4]; after 2 min.,1.00 % ID/g
same,Radioactive accumulation per unit weight in brain,[4]; after 5 min.,0.72 % ID/g
same,Radioactive accumulation per unit weight in brain,[4]; after 30 min.,0.12 % ID/g
same,Radioactive accumulation per unit weight in brain,[4]; after 60 min.,0.05 % ID/g
same,logPoctanol value,[5],2.3
